In ChEMBL document CHEMBL2346657, “Synthesis of novel 2-amino-4-(5'-substituted 2'-phenyl-1H-indol-3'-yl)-6-aryl-4H-pyran-3-carbonitrile derivatives as antimicrobial and antioxidant agents” (2013):
Active and inactive are the calls of the source. Unless noted, no cut-off for these calls is given here.

Experiments:
Format in all cases: functional
[1] = system: Aspergillus niger; assay: Antimicrobial activity against Aspergillus niger MTCC 281 at 500 ug/ml after 72 hrs by cup plate method; details: MTCC 281, 72 h, read-out: IZ
[2] = Antioxidant activity assessed as ferric ion reducing activity at 75 ug/ml by FRAP assay
[3] = system: Aspergillus oryzae; assay: Antimicrobial activity against Aspergillus oryzae MTCC 3567 at 1000 ug/ml after 72 hrs by cup plate method; details: MTCC 3567, 72 h, read-out: IZ
[4] = system: Aspergillus oryzae; assay: Antimicrobial activity against Aspergillus oryzae MTCC 3567 at 750 ug/ml after 72 hrs by cup plate method; details: MTCC 3567, 72 h, read-out: IZ
[5] = system: Klebsiella pneumoniae; assay: Antimicrobial activity against Klebsiella pneumoniae NCTC 13368 at 1000 ug/ml after 24 hrs by cup plate method; details: NCTC 13368, 24 h, read-out: IZ
[6] = system: Aspergillus flavus; assay: Antimicrobial activity against Aspergillus flavus MTCC 1973 at 500 ug/ml after 72 hrs by cup plate method; details: MTCC 1973, 72 h, read-out: IZ
[7] = system: Aspergillus flavus; assay: Antimicrobial activity against Aspergillus flavus MTCC 1973 at 750 ug/ml after 72 hrs by cup plate method; details: MTCC 1973, 72 h, read-out: IZ
[8] = system: Escherichia coli; assay: Antimicrobial activity against Escherichia coli MTCC 723 at 500 ug/ml after 24 hrs by cup plate method; details: MTCC 723, 24 h, read-out: IZ
[9] = system: Pseudomonas aeruginosa; assay: Antimicrobial activity against Pseudomonas aeruginosa MTCC 1688 at 750 ug/ml after 24 hrs by cup plate method; details: MTCC 1688, 24 h, read-out: IZ
[10] = system: Aspergillus terreus; assay: Antimicrobial activity against Aspergillus terreus MTCC 1782 at 750 ug/ml after 72 hrs by cup plate method; details: MTCC 1782, 72 h, read-out: IZ
[11] = system: Aspergillus terreus; assay: Antimicrobial activity against Aspergillus terreus MTCC 1782 at 1000 ug/ml after 72 hrs by cup plate method; details: MTCC 1782, 72 h, read-out: IZ
[12] = system: Klebsiella pneumoniae; assay: Antimicrobial activity against Klebsiella pneumoniae NCTC 13368 at 750 ug/ml after 24 hrs by cup plate method; details: NCTC 13368, 24 h, read-out: IZ
[13] = system: Aspergillus oryzae; assay: Antimicrobial activity against Aspergillus oryzae MTCC 3567 at 500 ug/ml after 72 hrs by cup plate method; details: MTCC 3567, 72 h, read-out: IZ
[14] = system: Escherichia coli; assay: Antimicrobial activity against Escherichia coli MTCC 723 at 750 ug/ml after 24 hrs by cup plate method; details: MTCC 723, 24 h, read-out: IZ
[15] = system: Klebsiella pneumoniae; assay: Antimicrobial activity against Klebsiella pneumoniae NCTC 13368 at 500 ug/ml after 24 hrs by cup plate method; details: NCTC 13368, 24 h, read-out: IZ
[16] = Antioxidant activity assessed as metal chelating activity by measuring inhibition of ferrozine-Fe2+ complex formation at 100 ug/ml; design: scale not given: the % may be the effect or the level left
[17] = system: Pseudomonas aeruginosa; assay: Antimicrobial activity against Pseudomonas aeruginosa MTCC 1688 at 500 ug/ml after 24 hrs by cup plate method; details: MTCC 1688, 24 h, read-out: IZ
[18] = system: Aspergillus niger; assay: Antimicrobial activity against Aspergillus niger MTCC 281 at 1000 ug/ml after 72 hrs by cup plate method; details: MTCC 281, 72 h, read-out: IZ
[19] = system: Staphylococcus aureus; assay: Antimicrobial activity against Staphylococcus aureus ATCC 29513 at 1000 ug/ml after 24 hrs by cup plate method; details: ATCC 29513, 24 h, read-out: IZ
[20] = system: Aspergillus terreus; assay: Antimicrobial activity against Aspergillus terreus MTCC 1782 at 500 ug/ml after 72 hrs by cup plate method; details: MTCC 1782, 72 h, read-out: IZ
[21] = system: Pseudomonas aeruginosa; assay: Antimicrobial activity against Pseudomonas aeruginosa MTCC 1688 at 1000 ug/ml after 24 hrs by cup plate method; details: MTCC 1688, 24 h, read-out: IZ
[22] = system: Staphylococcus aureus; assay: Antimicrobial activity against Staphylococcus aureus ATCC 29513 at 750 ug/ml after 24 hrs by cup plate method; details: ATCC 29513, 24 h, read-out: IZ
[23] = system: Staphylococcus aureus; assay: Antimicrobial activity against Staphylococcus aureus ATCC 29513 at 500 ug/ml after 24 hrs by cup plate method; details: ATCC 29513, 24 h, read-out: IZ
[24] = system: Aspergillus flavus; assay: Antimicrobial activity against Aspergillus flavus MTCC 1973 at 1000 ug/ml after 72 hrs by cup plate method; details: MTCC 1973, 72 h, read-out: IZ
[25] = system: Escherichia coli; assay: Antimicrobial activity against Escherichia coli MTCC 723 at 1000 ug/ml after 24 hrs by cup plate method; details: MTCC 723, 24 h, read-out: IZ
[26] = Antioxidant activity assessed as metal chelating activity by measuring inhibition of ferrozine-Fe2+ complex formation at 25 to 100 ug/ml
[27] = system: Aspergillus niger; assay: Antimicrobial activity against Aspergillus niger MTCC 281 at 750 ug/ml after 72 hrs by cup plate method; details: MTCC 281, 72 h, read-out: IZ
[28] = system: Radical scavenging activity; assay: Antioxidant activity assessed as DPPH radical scavenging activity at 75 ug/ml
[29] = system: Radical scavenging activity; assay: Antioxidant activity assessed as DPPH radical scavenging activity at 50 ug/ml

Structure (SMILES) | zone of inhibition at 500 µg/mL [1] [mm] | zone of inhibition at 1000 µg/mL [3] [mm] | zone of inhibition at 750 µg/mL [4] [mm] | zone of inhibition at 1000 µg/mL [5] [mm] | zone of inhibition at 500 µg/mL [6] [mm] | zone of inhibition at 750 µg/mL [7] [mm] | zone of inhibition at 500 µg/mL [8] [mm] | zone of inhibition at 750 µg/mL [9] [mm] | zone of inhibition at 750 µg/mL [10] [mm] | zone of inhibition at 1000 µg/mL [11] [mm] | zone of inhibition at 750 µg/mL [12] [mm] | zone of inhibition at 500 µg/mL [13] [mm] | zone of inhibition at 750 µg/mL [14] [mm] | zone of inhibition at 500 µg/mL [15] [mm] | zone of inhibition at 500 µg/mL [17] [mm] | zone of inhibition at 1000 µg/mL [18] [mm] | zone of inhibition at 1000 µg/mL [19] [mm] | zone of inhibition at 500 µg/mL [20] [mm] | zone of inhibition at 1000 µg/mL [21] [mm] | zone of inhibition at 750 µg/mL [22] [mm] | other results
N#Cc1c(N)c2c(N)c3c(nc2oc1=O)OC(c1ccc(Cl)cc1)=CC3c1c(-c2ccccc2)[nH]c2ccc(Cl)cc12 (centres undefined) | 8 | 3 | 3 | 13 | 10 | 9 | 11 | 8 | 13 | 13 | 13 | 9 | 12 | 13 | 9 | 10 | 10 | 12 | 3 | 12 | Activity [2]: Active; Activity [16]: 79.7%; zone of inhibition at 500 µg/mL [23]: 12 mm; zone of inhibition at 1000 µg/mL [24]: 8 mm; zone of inhibition at 1000 µg/mL [25]: 14 mm; Activity [26]: Active; zone of inhibition at 750 µg/mL [27]: 8 mm
O=c1[nH]cnc2c1C(c1c(-c3ccccc3)[nH]c3ccc(Cl)cc13)C=C(c1ccc(Cl)cc1)O2 (centres undefined) | 6 | 3 | 3 | 12 | 4 | 4 | 9 | 8 | 5 | 5 | 12 | 3 | 9 | 12 | 8 | 5 | 12 | 5 | 8 | 9 | Activity [28]: Active; zone of inhibition at 500 µg/mL [23]: 9 mm; zone of inhibition at 1000 µg/mL [24]: 4 mm; zone of inhibition at 1000 µg/mL [25]: 8 mm; Activity [26]: Active; zone of inhibition at 750 µg/mL [27]: 5 mm; Activity [29]: Active
